Reference: article PMC4158172 (European Journal of Clinical Pharmacology, 2014)
Where “and” joins values, the source holds several entries; their conditions need not be identical. Equal entries are not always repeated.

How the values were obtained:
[1] = DTG steady-state plasma pharmacokinetics, interaction with TPV/r
Protocol: Two studies were conducted in healthy volunteer subjects as judged by physical exam, medical history and laboratory testing. These studies are registered with ClinicalTrials.gov (NCT01068925; protocol number ING113096 and NCT01098526; protocol number ING114005). Adult men and women of non-childbearing potential were enrolled. Subjects were excluded if they tested positive for HIV or hepatitis C antibodies or hepatitis B surface antigen. Subjects were not allowed to receive any prescription or non-prescription drugs, including vitamins or herbal products, within 7 days of dosing and throughout the study.
This was a phase I, open-label, single-sequence, three-period, steady-state study. Eighteen subjects received DTG 50 mg q24h for 5 days (period 1). […] There was no washout between treatment periods. All doses were administered with a moderate-fat meal.
Dolutegravir and EFV were measured in plasma samples using validated methods, which consisted of extraction from plasma by protein precipitation with acetonitrile containing [^15N^2H7]dolutegravir or [^2H4]-efavirenz as the internal standards, respectively. The plasma extracts were injected onto a 2.1 × 50 mm 3.5-micron XBridge™ C18 column (Waters Associates, Milford, MA, USA). Dolutegravir was eluted with a mobile phase consisting of 40 % acetonitrile in aqueous 0.1 % formic acid, and EFV was eluted with a mobile phase consisting of acetonitrile/0.1 % formic acid (65 % v/v) in a 5-mM ammonium acetate buffer containing 0.1 % acetic acid (35 % v/v). The eluates were detected by using a Sciex API 4000™ (AB Sciex, Framingham, MA, USA) equipped with a TurboIonSpray® ionisation source with multiple reaction monitoring (DTG positive ion mode m/z 420 > 277; internal standard m/z 428 > 277; EFV negative ion mode m/z 314 > 243; internal standard m/z 318 > 247). Data acquisition and processing were performed with Analyst 1.4.2 software (AB Sciex), and linear regression analysis calculations were performed using the Study Management System, SMS™ 2000 v.2.2 (GlaxoSmithKline, Research Triangle Park, NC, USA). The calibration range for DTG was 0.020 to 20 μg/mL and for EFV was 0.10 to 20 μg/mL. Quality control samples prepared separately at three concentrations were stored with study samples and analysed with each batch of samples against separately prepared calibration standards.
A non-compartmental PK analysis of the concentration-time data was performed with WinNonlin (version 5.2, Pharsight Corporation, Mountain View, CA, USA). Plasma PK parameters for both DTG and EFV were calculated using actual recorded times for each treatment. Parameters that were determined included AUC from time zero to the end of the dosage interval (AUC(0–τ)), maximum observed plasma concentration (C max), the time of maximum observed plasma concentration (T max) and plasma concentration at the end of the dosing interval (C τ).
Statistical analyses were performed on the log-transformed PK parameters: AUC(0–τ), C τ and C max. […] Efavirenz PK data were compared with historical data. Subject was fitted as a random effect and treatment was fitted as a fixed effect in the model. The ratio of geometric least-squares means and associated 90 % confidence intervals were estimated for the PK parameters of interest.

[2] = Plasma metabolic profile of DTG (pooled plasma); format: in vivo, human; conditions: individual 24-h proportionally pooled plasma, DTG alone and DTG + EFV
Protocol: (§1) There was no washout between treatment periods. All doses were administered in the fasting state.
(§2) Urine samples were collected at intervals of 0 to 12 hours and 12 to 24 hours after each treatment period. Individual urine pools were produced for each subject in a given treatment group by combining proportional volumes (% of total volume) from the 0- to 12-hours and 12- to 24-hours collections. Individual pooled human plasma samples were prepared for each subject and treatment group.
Each pooled plasma sample was mixed with aqueous EDTA disodium salt solution (10 mg/mL) and subsequently extracted 3 times with methanol and acetonitrile. Pooled urine samples were lyophilised and the residue was reconstituted in water:methanol (90:10 v/v). Drug-related components in plasma extracts and urine samples were separated on a 100 × 4.6 mm 3.5-micron Symmetry C18 column (Waters Associates) at 40°C by a step-gradient elution method with a mobile phase composition of water:acetonitrile containing 0.1% ammonium acetate starting at 95:5 (v/v) and ending at 5:95 (v/v) over 50 minutes. The eluate was analysed by multistage mass spectrometry (MSn) using an LTQ Orbitrap™ Hybrid Mass Spectrometer with Xcalibur 2.07 software (Thermo Fisher Scientific, Bremen, Germany). […]

[3] = Urinary metabolic profile of DTG (pooled urine); format: in vivo, human; conditions: pooled urine 0-24 h, n=12, mean (standard deviation)
Protocol: as §1, §2
Each pooled plasma sample was mixed with aqueous EDTA disodium salt solution (10 mg/mL) and subsequently extracted 3 times with methanol and acetonitrile. Pooled urine samples were lyophilised and the residue was reconstituted in water:methanol (90:10 v/v). Drug-related components in plasma extracts and urine samples were separated on a 100 × 4.6 mm 3.5-micron Symmetry C18 column (Waters Associates) at 40°C by a step-gradient elution method with a mobile phase composition of water:acetonitrile containing 0.1% ammonium acetate starting at 95:5 (v/v) and ending at 5:95 (v/v) over 50 minutes. The eluate was analysed by multistage mass spectrometry (MSn) using an LTQ Orbitrap™ Hybrid Mass Spectrometer with Xcalibur 2.07 software (Thermo Fisher Scientific, Bremen, Germany). Data-dependent scanning using an accurate mass list, consisting of all previously characterised metabolites, was used in addition to analysis of pre-dose samples to aid in the distinction of drug-related material from endogenous components.

CYP isozymes = system: CYP isozymes; parameters: method as in PMID 23132334; conditions: in vitro; cited from earlier work
UGT1A1 = system: UGT1A1; parameters: method as in PMID 23132334; conditions: in vitro; cited from earlier work
P-glycoprotein (P-gp) = system: P-glycoprotein (P-gp); parameters: method as in PMID 23132334; conditions: in vitro; cited from earlier work
BCRP = system: BCRP; parameters: method as in PMID 23132334; conditions: in vitro; cited from earlier work
MRP2 = system: MRP2; parameters: method as in PMID 23132334; conditions: in vitro; cited from earlier work
[4] = parameters: method as in PMID 19884365; conditions: healthy subjects; cited from earlier work
[5] = parameters: method as in earlier work; conditions: SAILING, DTG 50 mg once daily with EFV- or TPV/r-containing background regimens, n=16; cited from earlier work
[6] = cited from earlier work
CYP3A4 [7] = conditions: in vivo; cited from earlier work
OATP1B1 = conditions: cited from earlier work
CYP3A4 [8] = conditions: cited from earlier work
[9] = both, human, plasma, oral, 50 mg
[10] = co-administration with TPV/r 500/200 mg q12h

C[C@@H]1CCO[C@H]2Cn3cc(C(=O)NCc4ccc(F)cc4F)c(=O)c(O)c3C(=O)N12 [DTG, Dolutegravir]
GLS mean ratio (90 % CI) of AUC(0–τ) ([1]; DTG+TPV/r vs DTG alone, n=14): 0.409 (0.379, 0.443) | GLS mean ratio (90 % CI) of C max ([1]; DTG+TPV/r vs DTG alone, n=14): 0.535 (0.500, 0.572) | GLS mean ratio (90 % CI) of C τ ([1]; DTG+TPV/r vs DTG alone, n=14): 0.239 (0.212, 0.270) | Tmax ([1]; both, human, in vivo, 50 mg): 3 h | AUC [1, 9]: 64500 ng·h/mL | Cmax [1, 9]: 4530 ng/mL | concentration at 24 h [1, 9]: 1480 ng/mL | decrease in plasma DTG AUC(0–τ) [1, 10]: 59% | decrease in plasma DTG C max [1, 10]: 46% | decrease in plasma DTG C τ [1, 10]: 76% and 75% | share of drug-related material in plasma [2]: > 97% | % DTG ([3]; DTG 50 mg + EFV q24h): 100% | % Total drug-related response ([3]; DTG 50 mg + EFV q24h): 6.2 (5.0) % | % DTG ([3]; DTG 50 mg q24h): 100% | % Total drug-related response ([3]; DTG 50 mg q24h): 6.4 (1.8) % | direct inhibition of CYP isozymes (CYP isozymes): minimal or no direct inhibition | direct inhibition of UGT1A1 (UGT1A1): minimal or no direct inhibition | direct inhibition of P-gp (P-glycoprotein (P-gp)): minimal or no direct inhibition | direct inhibition of BCRP (BCRP): minimal or no direct inhibition | direct inhibition of MRP2 (MRP2): minimal or no direct inhibition | effect on midazolam exposure [4]: no significant effect | lower average DTG pre-dose (C 0) concentration [5]: 78% | pre-dose (C 0) concentration, geometric mean [5]: 186 ng/mL | C0 ([6]; DTG 50 mg once daily without inducers, phase III studies in INI-naive populations): approximately 1.2 μg/mL | C0 (equivalent to C τ), geometric mean ([6]; VIKING-3, DTG 50 mg twice daily with EFV and TPV/r in background regimens, n=18, CV 63 %): 1620 ng/mL | C0 higher than with DTG 50 mg once daily without inducers ([6]; VIKING-3, DTG 50 mg twice daily with EFV and TPV/r in background regimens, n=18): 35% | component of metabolism via CYP3A4 (CYP3A4 [7]): ~10% | direct inhibition of OATP1B1 (OATP1B1): minimal or no direct inhibition | induction of CYP3A4 (CYP3A4 [8]): not an inducer
